Values quoted from earlier work, collected in patent US20100286262A1, “PTGS2 HAPLOTYPES” (priority 2007, published 2010).
Where two headings read alike, the source gives them in different places.

Experiments:
[1] = adjuvant setting; cited from earlier work
[2] = tested on: colorectal cancer (CRC) risk; conditions: cited from earlier work

SMILES	Cardiotoxicity [1]	RR of CRC with aspirin use ([2]; cancers with weak or absent COX-2 expression, 0.73-1.26)	RR of CRC with aspirin use ([2]; tumours overexpressing COX-2, 0.52-0.78)
O=c1[nH]cc(F)c(=O)[nH]1 [5-fluorouracil]	2-4%		
CC(=O)Oc1ccccc1C(=O)O [aspirin]		0.96	0.64
